Data set [1] relates to ML2 cells (acute myeloid leukemia). The data set can be described thus: Cell death after 96 h of treatment (ANXN/7AAD flow cytometry), ML2. Type of data set: cell-based. The following applies: Homo sapiens, ML-2; ML2, 96 h. As to the method:
(§1) Four hematological cell lines (ML2—acute myeloid leukemia; Jurkat—acute lymphoblastic leukemia; Namalwa—Burkitt lymphoma; and RPMI8226—multiple myeloma) were purchased from DSMZ (German Collection of Microorganisms and Cell Cultures, Braunschweig, Germany) or ATCC.
(§2) All cells were cultured in RPMI medium (Invitrogen AG, 61870-01) supplemented with 10% heat inactivated fetal calf serum (Amimed, 2-01F30-I) and 1% penicillin/streptomycin at 37 °C (Amimed, 4-01F00-H) in a humidified atmosphere of 95% air and 5% CO2.
(§3) To determine the cell death induced by NAMPT inhibitors, malignant cells were stained with ANNEXIN-V (ANXN, eBioscience, BMS306FI/300) and 7-aminoactinomycin D (7AAD, Immunotech, A07704) as described by the manufacturer and analyzed using flow cytometry. Dead cells were identified as ANXN+7AAD+ /7AAD+ and early apoptotic cells as ANXN+ 7AAD-. Specific cell death induced by inhibitors was calculated using the following formula: percent of cell death induced by compound = [(S – C) / (100 – C)] × 100; where S = treated sample cell death and C = untreated sample cell death.
On the technique in general: In flow cytometry, cells or beads pass a laser one at a time.

Data set [2] concerns RPMI8226 cells (multiple myeloma). Briefly: Cell death after 96 h of treatment (ANXN/7AAD flow cytometry), RPMI8226. The following applies: Homo sapiens, RPMI-8226; RPMI8226, 96 h. In kind it is cell-based. How it is done: as §1, §2, §3
Data set [3] deals with Namalwa cells (Burkitt lymphoma). The data set can be described thus: Cell death after 96 h of treatment (ANXN/7AAD flow cytometry), Namalwa. In kind it is cell-based. Particulars: Homo sapiens. How it is done: as §1, §2, §3
The nature of data set [4]: Pharmacokinetics in mice after intraperitoneal administration. Type of data set: in vivo. Particulars: for Cmax / Tmax / CL/F / half-life / AUC(0-t) / Vd/F: female SCID mice, intraperitoneal, 20 mg/kg (Figure S1); for Cmax / Tmax / half-life / AUC(0-t) / Vd/F: plasma; for CL/F: dose divided by AUC0-24; for Vd/F: (CL/F)/λz, read-out: Vz/F. How it is done:
Concentration measurements in mice EDTA plasma samples were performed using a Vanquish Flex ultra-high-performance liquid chromatography (UHPLC) system attached to a TSQ Quantis^TM triple quadrupole mass spectrometer (MS) (ThermoFisher Scientific, Waltham, MA, USA). The chromatographic column was a Luna Omega Polar C18 3 µm, 50 × 2.1 mm from Phenomenex (Torrance, CA, USA), kept at 40 °C in a UHPLC oven. The mobile phase was made of water and acetonitrile (ACN) with 0.1% formic acid in each. The gradient program ranged from 20 to 95% ACN in 1.5 min and the total method duration (including equilibration for the next injection) was 3 min. The flow rate and injection volume were 0.5 mL/min and 5 µL, respectively.
For the sample preparation, 90 µL of ACN was added to an aliquot of 30 µL of mouse plasma for protein precipitation. The mixture was then centrifugated at 14,000 rpm and the supernatant was directly injected in the UHPLC–MS.
Drug plasma concentrations were measured at selected time points after intraperitoneal administration in mice (sacrificed mice in triplicates for each time point). Samples were analyzed on two separate occasions for each sampling. Then, pharmacokinetic (PK) parameters were computed using standard non-compartmental calculations for geometric means of the measured concentrations using the “PKNCA R Package” (R version 4.0.2, R Development Core Team, http://www.r-project.org/ access date: 4 February 2023).
The area under the curve (AUC0-24) was calculated for the four drugs using the trapezoidal and log-trapezoidal rule when appropriate. The terminal rate constant (λz) was approximated using the slope of the terminal phase, while the half-life (T1/2) was calculated as ln(2)/λz, the apparent clearance (CL/F) as the dose divided by AUC0-24 and the apparent volume of distribution (Vz/F) as (CL/F)/λz.

In data set [5] the test system is Jurkat cells (acute lymphoblastic leukemia). Briefly: Cell death after 96 h of treatment (ANXN/7AAD flow cytometry), Jurkat. In kind it is cell-based. Particulars: Homo sapiens. How it is done:
as §1, §2, §3

Data set [6] deals with Namalwa tumors (human Burkitt lymphoma cell line). The data set can be described thus: Mouse xenograft model of human Burkitt lymphoma. Type of data set: in vivo. The following applies: for Tumor growth: 10 mg/kg I.P. twice a day for 4 days, weekly over 3 weeks, JJ08: 5 days after administration. How it is done: The new NAMPT inhibitors (JJ08, FEI191 and FEI199 (in comparison with lead compound, FK866 (APO866))) were evaluated in vivo in a mouse xenograft model of human Burkitt lymphoma. […] non-leaky C.B.-17 SCID mice (8 to 10 weeks old; Iffa Credo, L’Arbresle, France) were housed in micro-isolator cages in a specific pathogen-free room in the animal facility at the University Hospital of Lausanne. Firstly, the mice spent one week alone to acclimatize to their new environment. All animals were handled according to the institutional regulations and with the prior approval of the animal ethic committee of the University of Lausanne. Manipulations were performed in sterile conditions under a laminar flow hood. Firstly, Namalwa cells (1 × 10^7) were injected subcutaneously into the mouse flank side. Once the tumors became palpable and reached a size between 100 and 150 mm^3, mice (n = five/ group) were randomized into control and treated groups. The drugs were administered intraperitoneally (10 mg/kg body weight) in 200 µL 0.9% saline twice a day for 4 days, repeated weekly over 3 weeks. The control group was treated only with 200 µL 0.9% saline. Every day, the animals were monitored for any signs of illness, and in cases where the tumor size reached a diameter of 15 mm, they were sacrificed immediately.
Tumor size (A) and survival rate (B) of mice xenografted with Namalwa cells treated or untreated with NAMPT inhibitors were monitored for 21 days. Twenty-five 6-to-8-week-old C.B.-17 SCID mice were transplanted subcutaneously with Namalwa cells (10^7). Once tumors reached a volume of approximately 100–150 mm^3, at day 14, mice were randomized into five groups of animals (n = 5) with similar body weight. Control groups received vehicle (pink line) and JJ08 (10 mg/kg; light blue line), FEI191 (10 mg/kg; red line), FEI199 (10 mg/kg; green line) or APO866 (10 mg/kg; blue line) were administered as described in the Materials and Methods section. […] Data were analyzed by the Kaplan–Meier survival analysis with log-rank test.
A general note: A xenograft is tissue or cells of one species grown in another, often human tumour cells in immunodeficient mice.

The next data set addresses T1, purified NAMPT (Homo sapiens, UniProt P43490).
T1 construct: purchased Abcam ab221819
The data set can be described thus: NAMPT enzymatic activity assay (colorimetric kit). The following applies: 1 µM final concentration. Type of data set: biochemical. How it is done:
The ability of FK866 (APO866) analogues to inhibit NAMPT activity was assessed with an NAMPT Activity Assay Kit (Colorimetric) (Abcam, ab221819, Cambridge, UK) according to the manufacturer’s instructions. Briefly, NAMPT inhibitors were dissolved in DMSO to a final concentration of 1 µM and distributed in a 96-well plate in duplicate. Then, a reaction mix containing assay buffer, ATP, NMNAT1, NAM, PRPP and ddH2O was added and the plate was incubated at 30 °C for 60 min. After, to measure the generated NAD^+, a mix of WST-1, ADH, diaphorase and ethanol was added to the wells. The absorbance was measured in kinetic mode at 450 nm on a microplate reader for 45 min at 30 °C.
Figure 2 New compounds with a potent NAMPT inhibitory activity. Compounds were added in 1 µM final concentration to purified NAMPT and incubated with co-substrates, resulting in a reduction of tetrazolium salt (WST-1) to colorful formazan. The amount of formed dye is directly proportional to the enzyme activity. The absorbance of the dye was detected at OD 450 nm.

The test system of data set [7] is ML2, Jurkat, Namalwa and RPMI8226 cells. Briefly: Cell death in the four hematological cancer cell lines, statements for all lines together. Particulars: 96 h. Type of data set: cell-based, human. As to the method: as §1, §2, §3
A dose-dependent analysis of cell death induced by NAMPT inhibitors on ML2 (A), Jurkat (B), Namalwa (C) and RPMI8226 (D) cell lines. The cells were treated with various concentrations of NAMPT inhibitors for 96 h and cell death was assessed by flow cytometry using ANXN and 7AAD staining. […]

Where two headings read alike, the source gives them in different places.

A word on the IC50: it is the midpoint of a concentration-inhibition curve. In general, Cmax refers to the peak of the concentration-time curve. The Tmax is the time at which the peak concentration occurs. As a reminder, the CL/F is the apparent clearance, not corrected for the fraction that reaches the circulation. As usually defined, the half-life is the time in which the quantity being followed falls by half. Higher therefore signals slow decline.

T1 sequence (P43490 whole entry): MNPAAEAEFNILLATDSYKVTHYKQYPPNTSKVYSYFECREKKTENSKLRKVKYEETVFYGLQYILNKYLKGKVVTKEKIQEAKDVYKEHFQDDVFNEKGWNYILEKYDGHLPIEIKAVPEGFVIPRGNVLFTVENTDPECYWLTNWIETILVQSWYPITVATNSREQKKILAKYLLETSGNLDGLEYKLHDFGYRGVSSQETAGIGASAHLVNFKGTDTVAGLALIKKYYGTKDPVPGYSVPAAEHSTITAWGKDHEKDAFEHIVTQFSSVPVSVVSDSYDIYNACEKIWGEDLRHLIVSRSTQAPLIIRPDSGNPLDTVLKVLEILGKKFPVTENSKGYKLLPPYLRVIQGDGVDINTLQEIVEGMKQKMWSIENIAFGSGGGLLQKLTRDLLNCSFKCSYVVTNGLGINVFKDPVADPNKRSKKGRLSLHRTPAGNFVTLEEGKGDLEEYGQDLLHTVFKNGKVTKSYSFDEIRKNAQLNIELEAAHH

As for `O=C(/C=C/c1cccnc1)NCCCCC1CCN(C(=O)c2ccccc2)CC1` [APO866, reference compound], the IC50 in data set [1] is 410 pM. Further, in data set [2], the IC50 stood at 230 pM. This molecule also showed a half-maximal inhibitory concentration (IC50) in data set [3] of 580 pM. In data set [4], the peak concentration (Cmax) is given as 28,028 ng/mL, the time of peak concentration (Tmax) is given as 0.17 h and the apparent clearance CL/F amounted to 24 mL/h. Further, in data set [4] (mouse, ip), the half-life is 3.74 h and the Vd/F was 0.131 L. Besides, in data set [4] (mouse, ip, read-out: AUC0-24), the AUC(0-t) stood at 16400 ng·h/mL. This molecule had a half-inhibitory concentration (IC50) in data set [5] of 470 pM.

As for `N#CN=C(NC/C=C/CCC1CCN(C(=O)c2ccco2)CC1)Nc1ccncc1` [FEI199], the IC50 in data set [1] is 210 pM; in data set [2] it was 120 pM; in data set [3], 290 pM; in data set [7] (Homo sapiens, all four cell lines, read-out: IC50 in all malignancies), less than 300 pM; in data set [5], 250 pM. The Tumor growth entry in data set [6] is “did not stop tumor progression, but significantly delayed it”. Besides, the “Inhibition of NAMPT activity” value on purified NAMPT is given as “full inhibition”. Also, the “Concentration inducing maximal cell killing” value in data set [7] (all tested cell lines) is recorded as no more than 0.5 nM. In addition, the Cmax in data set [4] is given as 12,031 ng/mL. The time of peak concentration (Tmax) in data set [4] worked out at 0.17 h. Further, the apparent clearance CL/F in data set [4] stood at 108 mL/h. The “Clearance, fold higher than APO866 or JJ08” value in data set [4] (mice, I.P.) is recorded as “more than 4 fold”. In addition, the AUC(0-t) in data set [4] (mouse, ip, AUC calculated from PK measurements up to 8 h, read-out: AUC0-24 (*)) was 3720 ng·h/mL.

Take `O=C(/C=C/c1cccnc1)NCCCCC1CCN(C(=O)c2ccco2)CC1` [JJ08, (E)-N-(4-(1-(furan-2-carbonyl)piperidin-4-yl)butyl)-3-(pyridin-3-yl)acrylamide]: the half-maximal inhibitory concentration (IC50) in data set [1] came to 510 pM; in data set [2], 300 pM; in data set [3] it was 580 pM; in data set [5] it was 850 pM. Also, in data set [6], the Tumor growth result is “completely eradicated tumor growth”. For the same molecule, the “Signs of toxicity (loss of body weight, lethargy, rough coat, premature death)” value in data set [6] (xenografted mice, 10 mg/kg I.P.) is reported as “well tolerated”. Further, on purified NAMPT, the “Inhibition of NAMPT activity” value is “full inhibition”. Besides, the apparent clearance (CL/F) in data set [4] is listed as 53 mL/h. The “AUC0-24, fold lower than that of APO866” value in data set [4] (mice, I.P.) was “approximately 2 fold”. The “CL/F, fold higher compared to APO866” value in data set [4] (mice, I.P.) amounted to 2 fold. This molecule had a half-life in data set [4] (mouse, ip) of 6.58 h. Besides, in data set [4] (mouse, ip, read-out: AUC0-24), the AUC(0-t) was determined as 7560 ng·h/mL. For the same molecule, the Cmax in data set [4] (mouse, ip, read-out: Cmax) is 24300 ng/mL. Further, the Tmax in data set [4] (mouse, ip, read-out: Tmax) is 0.17 h. For the same molecule, the Vd/F in data set [4] (mouse, ip) is 0.502 L.

The values are drawn from publication PMC9967653, “Anticancer Activities of Novel Nicotinamide Phosphoribosyltransferase Inhibitors in Hematological Malignancies” (Molecules, 2023).
